Values quoted from earlier work, collected in US11154585B2, “Orodispersible film composition comprising enalapril for the treatment of hypertension in a pediatric population” (PHARMATHEN S.A., priority 2017, dated 2021).
Counter-ions that a name gives are not always drawn. Like-named read-outs stand apart in the source and are kept apart here.

## CCOC(=O)[C@H](CCc1ccccc1)N[C@@H](C)C(=O)N1CCC[C@H]1C(=O)O [Enalapril maleate]
alcohol
  Solubility: soluble
Methanol and dimethylformamide
  Solubility: freely soluble
Nonpolar organic solvents
  Solubility: practically insoluble
Semi polar organic solvents
  Solubility: slightly soluble
water
  Solubility: sparingly soluble
